Assay results from patent US20190105367A1, “ANTIMICROBIAL 4-OXOQUINOLIZINES” (Emergent Product Development Gaithersburg Inc., priority 2011, published 2019).
≈ marks a conversion by molar mass, not a printed value. Read-outs that look alike come from different tables or passages of the source.

Assays:
[1] = system: strains of A. baumannii and one strain of Acinetobacter sp.; experiment: MIC with sub-inhibitory concentrations (0.25x MIC) of polymyxin B, panel of Acinetobacter strains (Example 4); assay type: cell-based
A. baumannii ATCC 19606 [2] = experiment: MIC without and with sub-inhibitory polymyxin B (Example 4); assay type: cell-based, Acinetobacter baumannii; details: for MIC without PB/MIC + PB: A. baumannii ATCC 19606; for MIC: Acinetobacter baumannii
A. baumannii ATCC 19606 [3] = experiment: Preliminary MBC without and with sub-inhibitory polymyxin B (Example 4); assay type: cell-based, Acinetobacter baumannii; details: Acinetobacter baumannii
A. baumannii J2 = experiment: MIC without and with sub-inhibitory polymyxin B (Example 4); assay type: cell-based, Acinetobacter baumannii; details: for MIC without PB/MIC + PB: A. baumannii J2; for MIC: Acinetobacter baumannii
[4] = system: Acinetobacter sp. (H064200250); experiment: as above; assay type: cell-based; details: for MIC: Acinetobacter
A. baumannii A329 = experiment: as above; assay type: cell-based, Acinetobacter baumannii; details: +0.06 μg/ml PB, 2nd experiment
A. baumannii A387 [5] = experiment: as above; assay type: cell-based, Acinetobacter baumannii; details: for MIC without PB/MIC + PB: A. baumannii A387; for MIC: Acinetobacter baumannii
A. baumannii A387 [6] = experiment: Preliminary MBC without and with sub-inhibitory polymyxin B (Example 4); assay type: cell-based, Acinetobacter baumannii; details: Acinetobacter baumannii
A. baumannii A390 [7] = experiment: MIC without and with sub-inhibitory polymyxin B (Example 4); assay type: cell-based, Acinetobacter baumannii; details: +0.06 μg/ml PB, 2nd experiment
A. baumannii A14 [8] = experiment: Preliminary MBC without and with sub-inhibitory polymyxin B (Example 4); assay type: cell-based, Acinetobacter baumannii; details: 2nd experiment
Method in brief: (§1)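 Plates were incubated for 18-20 hours at 37° C. MBC was taken as the lowest concentration giving colony growth ca. 90% below the positive control, typically where only single colonies or none appeared.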

A. baumannii A390 [9] = experiment: as above; assay type: cell-based, Acinetobacter baumannii; details: Acinetobacter baumannii, A390, A. baumannii A390, +0.06 μg/ml PB, 2nd experiment, read-out: MBC
Method in brief: as §1

A. baumannii A473 [10] = experiment: as above; assay type: cell-based, Acinetobacter baumannii; details: Acinetobacter baumannii, A473, A. baumannii A473, +0.06 μg/ml PB, 2nd experiment, read-out: MBC
Method in brief: as §1

A. baumannii NCTC 13301 [11] = experiment: as above; assay type: cell-based, Acinetobacter baumannii; details: Acinetobacter baumannii
Method in brief: as §1

A. baumannii A401 [12] = experiment: MIC without and with sub-inhibitory polymyxin B (Example 4); assay type: cell-based, Acinetobacter baumannii
A. baumannii A401 [13] = experiment: Preliminary MBC without and with sub-inhibitory polymyxin B (Example 4); assay type: cell-based, Acinetobacter baumannii; details: Acinetobacter baumannii
A. baumannii A472 [14] = experiment: MIC without and with sub-inhibitory polymyxin B (Example 4); assay type: cell-based, Acinetobacter baumannii; details: for MIC: Acinetobacter baumannii
A. baumannii A472 [15] = experiment: Preliminary MBC without and with sub-inhibitory polymyxin B (Example 4); assay type: cell-based, Acinetobacter baumannii; details: Acinetobacter baumannii, preliminary MBC
A. baumannii A473 [16] = experiment: MIC without and with sub-inhibitory polymyxin B (Example 4); assay type: cell-based, Acinetobacter baumannii; details: +0.06 μg/ml PB, 2nd experiment
A. baumannii A489 = experiment: as above; assay type: cell-based, Acinetobacter baumannii; details: for MIC without PB/MIC + PB: A. baumannii A489; for MIC: Acinetobacter baumannii
A. baumannii NCTC 13301 [17] = experiment: as above; assay type: cell-based, Acinetobacter baumannii
A. baumannii NCTC 13301 [18] = experiment: as above; assay type: cell-based, Acinetobacter baumannii; details: +[…] PB, 2nd experiment
A. baumannii A14 [19] = experiment: as above; assay type: cell-based, Acinetobacter baumannii; details: 1st experiment
A. baumannii A14 [20] = experiment: as above; assay type: cell-based, Acinetobacter baumannii; details: 2nd experiment
A. baumannii A14 [21] = experiment: Preliminary MBC without and with sub-inhibitory polymyxin B (Example 4); assay type: cell-based, Acinetobacter baumannii; details: Acinetobacter baumannii
[22] = ratio, PB 0.06 μg/ml, 1st experiment
[23] = A. baumannii A14, +0.06 μg/ml PB

`Cc1c(-c2ccc(N)cc2)c(F)cn2c(=O)c(C(=O)O)cc(C3CC3)c12` [Compound 7, 8-(4-amino-phenyl)-1-cyclopropyl-7-fluoro-9-methyl-4-oxo-quinolizine-3-carboxylic acid] was tested, and the “MIC range with PB (0.25x MIC) Oct. 1, 2008 n = 8” value ([1]; 1st experiment, […] polymyxin B, ATCC 19606, A329, A390 and A473 not taken) was at most 0.03 to 1 µg/mL, the “MIC range with PB (0.25x MIC) Oct. 14, 2008 n = 11” value ([1]; 2nd experiment, 0.06 μg/ml polymyxin B, all strains except the ATCC strain) was at most 0.03 to 2 µg/mL and the “MIC without PB/MIC + PB” value (A. baumannii ATCC 19606 [2]; +0.06 μg/ml PB, 2nd experiment) was at least 8. The “MIC without PB/MIC + PB” value (A. baumannii ATCC 19606 [2]; [22]) was at least 16, the MIC (A. baumannii ATCC 19606 [2]; ATCC19606, A. baumannii ATCC 19606, +0.06 μg/ml PB, 2nd experiment, read-out: MIC) was at most 0.03 µg/mL and the MIC (A. baumannii ATCC 19606 [2]; ATCC19606, read-out: MIC +0.06 μg/ml PB, A. baumannii ATCC 19606, +0.06 μg/ml polymyxin B, 1st experiment) was at most 0.03 µg/mL. For the same compound, the MBC (A. baumannii ATCC 19606 [3]; ATCC19606, A. baumannii ATCC 19606, +0.06 μg/ml PB, 2nd experiment, read-out: MBC) was at most 0.03 µg/mL, the MBC (A. baumannii ATCC 19606 [3]; ATCC19606, read-out: MBC +0.06 μg/ml PB, A. baumannii ATCC 19606, +0.06 μg/ml polymyxin B, 1st experiment) was at most 0.03 µg/mL and the “MIC without PB/MIC + PB” value (A. baumannii J2; +[…] PB, 2nd experiment) was at least 128. For the same compound, the “MIC without PB/MIC + PB” value (A. baumannii J2; ratio, PB […], 1st experiment) was at least 512, the MIC (A. baumannii J2; J2, A. baumannii J2, +[…] PB, 2nd experiment, read-out: MIC) was at most 0.03 µg/mL and the MIC (A. baumannii J2; J2, read-out: MIC +[…] PB, A. baumannii J2, +[…] polymyxin B, 1st experiment) was at most 0.03 µg/mL. For the same compound, the “MIC without PB/MIC + PB” value ([4]; Acinetobacter spp. H064200250 (OXA51), +[…] PB, 2nd experiment) was at least 512, the “MIC without PB/MIC + PB” value ([4]; Acinetobacter spp. H064200250, ratio, PB […], 1st experiment) was 32 and the MIC ([4]; Acinetobacter spp. H064200250 (OXA51), +[…] PB, 2nd experiment, read-out: MIC) was at most 0.03 µg/mL. The MIC ([4]; read-out: MIC +[…] PB, Acinetobacter spp. H064200250, +[…] polymyxin B, 1st experiment) was 0.25 µg/mL (≈ 0.709 µM), the “MIC without PB/MIC + PB” value (A. baumannii A329; A. baumannii A329) was 8 and the MIC (A. baumannii A329; Acinetobacter baumannii, A329, A. baumannii A329, read-out: MIC) was 2 µg/mL (≈ 5.68 µM). For the same compound, the “MIC without PB/MIC + PB” value (A. baumannii A387 [5]; +0.06 μg/ml PB, 2nd experiment) was at least 64, the “MIC without PB/MIC + PB” value (A. baumannii A387 [5]; [22]) was at least 64 and the MIC (A. baumannii A387 [5]; A387, A. baumannii A387, +0.06 μg/ml PB, 2nd experiment, read-out: MIC) was at most 0.03 µg/mL. The MIC (A. baumannii A387 [5]; A387, read-out: MIC +0.06 μg/ml PB, A. baumannii A387, +0.06 μg/ml polymyxin B, 1st experiment) was at most 0.03 µg/mL, the MBC (A. baumannii A387 [6]; A387, A. baumannii A387, +0.06 μg/ml PB, 2nd experiment, read-out: MBC) was at most 0.03 µg/mL and the MBC (A. baumannii A387 [6]; A387, read-out: MBC +0.06 μg/ml PB, A. baumannii A387, +0.06 μg/ml polymyxin B, 1st experiment) was at most 0.03 µg/mL. For the same compound, the “MIC without PB/MIC + PB” value (A. baumannii A390 [7]; A. baumannii A390) was 128, the MIC (A. baumannii A390 [7]; Acinetobacter baumannii, A390, A. baumannii A390, read-out: MIC) was 0.125 µg/mL (≈ 0.355 µM) and the MBC (A. baumannii A14 [8]; [23]) was 2 µg/mL (≈ 5.68 µM). For the same compound, the MBC (A. baumannii A14 [8]; Acinetobacter baumannii, A14, A. baumannii A14, without PB, read-out: MBC) was 16 µg/mL (≈ 45.4 µM), the MBC (A. baumannii A390 [9]) was 0.125 µg/mL (≈ 0.355 µM) and the MBC (A. baumannii A473 [10]) was 0.06 µg/mL (≈ 0.17 µM). The MBC (A. baumannii NCTC 13301 [11]; NCTC13301, A. baumannii NCTC 13301, +[…] PB, preliminary MBC, 2nd experiment, read-out: MBC) was at most 0.03 µg/mL, the MBC (A. baumannii NCTC 13301 [11]; NCTC13301, read-out: MBC +[…] PB) was 0.06 µg/mL (≈ 0.17 µM) and the “MIC +0.06 μg/ml PB” value (A. baumannii A401 [12]; A baumannii A 401, +0.06 μg/ml polymyxin B, 1st experiment) was 0.5 µg/mL. For the same compound, the “MIC without PB/MIC + PB” value (A. baumannii A401 [12]; A baumannii A 401, ratio, PB 0.06 μg/ml, 1st experiment) was 8, the MIC (A. baumannii A401 [12]; Acinetobacter baumannii, A401, A baumannii A 401, +0.06 μg/ml PB, 2nd experiment, read-out: MIC) was 1 µg/mL (≈ 2.84 µM) and the MBC (A. baumannii A401 [13]; A401, A baumannii A 401, +0.06 μg/ml PB, 2nd experiment, read-out: MBC) was 0.5 µg/mL (≈ 1.42 µM). For the same compound, the MBC (A. baumannii A401 [13]; A401, read-out: MBC +0.06 μg/ml PB, A baumannii A 401, +0.06 μg/ml polymyxin B, 1st experiment) was 0.5 µg/mL, the “MIC without PB/MIC + PB” value (A. baumannii A472 [14]; A. baumannii A472, ratio, PB […], 1st experiment) was at least 128 and the MIC (A. baumannii A472 [14]; A472, A. baumannii A472, +[…] PB, 2nd experiment, read-out: MIC) was at most 0.03 µg/mL. For the same compound, the MIC (A. baumannii A472 [14]; A472, read-out: MIC +[…] PB, A. baumannii A472, +[…] polymyxin B, 1st experiment) was at most 0.03 µg/mL, the MBC (A. baumannii A472 [15]; A472, A. baumannii A472, +[…] PB, 2nd experiment, read-out: MBC) was at most 0.03 µg/mL and the MBC (A. baumannii A472 [15]; A472, read-out: MBC +[…] PB, A. baumannii A472, +[…] polymyxin B, 1st experiment) was at most 0.03 µg/mL. The “MIC without PB/MIC + PB” value (A. baumannii A473 [16]; A. baumannii A473) was 64, the MIC (A. baumannii A473 [16]; Acinetobacter baumannii, A473, A. baumannii A473, read-out: MIC) was 0.06 µg/mL (≈ 0.17 µM) and the “MIC without PB/MIC + PB” value (A. baumannii A489; +[…] PB, 2nd experiment) was at least 256. For the same compound, the “MIC without PB/MIC + PB” value (A. baumannii A489; ratio, PB […], 1st experiment) was at least 256, the MIC (A. baumannii A489; A489, A. baumannii A489, +[…] PB, 2nd experiment, read-out: MIC) was at most 0.03 µg/mL and the MIC (A. baumannii A489; A489, read-out: MIC +[…] PB, A. baumannii A489, +[…] polymyxin B, 1st experiment) was at most 0.03 µg/mL. For the same compound, the “MIC without PB/MIC + PB” value (A. baumannii NCTC 13301 [17]; A. baumannii NCTC 13301, ratio, PB […], 1st experiment) was 256, the MIC (A. baumannii NCTC 13301 [17]; Acinetobacter baumannii, NCTC13301, read-out: MIC +[…] PB) was 0.06 µg/mL (≈ 0.17 µM) and the “MIC without PB/MIC + PB” value (A. baumannii NCTC 13301 [18]; A. baumannii NCTC 13301) was at least 512. For the same compound, the MIC (A. baumannii NCTC 13301 [18]; Acinetobacter baumannii, NCTC13301, A. baumannii NCTC 13301, read-out: MIC) was at most 0.03 µg/mL, the “MIC +0.06 μg/ml PB” value (A. baumannii A14 [19]; +0.06 μg/ml polymyxin B) was 1 µg/mL and the “MIC without PB/MIC + PB” value (A. baumannii A14 [19]; ratio, PB 0.06 μg/ml) was 32. For the same compound, the MIC (A. baumannii A14 [20]; [23]) was 2 µg/mL (≈ 5.68 µM), the “MIC without PB/MIC + PB” value (A. baumannii A14 [20]; [23]) was 8 and the MIC (A. baumannii A14 [20]; Acinetobacter baumannii, A14, A. baumannii A14, without PB, read-out: MIC) was 16 µg/mL (≈ 45.4 µM). The MBC (A. baumannii A14 [21]; A14, read-out: MBC +0.06 μg/ml PB) was 1 µg/mL (≈ 2.84 µM) and the MBC (A. baumannii A14 [21]; A. baumannii A14, without polymyxin B, preliminary MBC, 1st experiment, read-out: MBC without PB) was 16 µg/mL (≈ 45.4 µM).
